In patent US20220017516A1, “LOX INHIBITORS” (THE INSTITUTE OF CANCER RESEARCH: ROYAL CANCER HOSPITAL, priority 2018, published 2022):
Read-outs that look alike come from different tables or passages of the source.

Columns and labels:
[1] = target: T1, monoamine oxidase A (MAO-A) (Homo sapiens, UniProt P21397); test: Amine oxidase activity assay (MAO-Glo), MAO-A; type: biochemical
T1 construct: purchased Promega V1452
T1 sequence (P21397 1-527): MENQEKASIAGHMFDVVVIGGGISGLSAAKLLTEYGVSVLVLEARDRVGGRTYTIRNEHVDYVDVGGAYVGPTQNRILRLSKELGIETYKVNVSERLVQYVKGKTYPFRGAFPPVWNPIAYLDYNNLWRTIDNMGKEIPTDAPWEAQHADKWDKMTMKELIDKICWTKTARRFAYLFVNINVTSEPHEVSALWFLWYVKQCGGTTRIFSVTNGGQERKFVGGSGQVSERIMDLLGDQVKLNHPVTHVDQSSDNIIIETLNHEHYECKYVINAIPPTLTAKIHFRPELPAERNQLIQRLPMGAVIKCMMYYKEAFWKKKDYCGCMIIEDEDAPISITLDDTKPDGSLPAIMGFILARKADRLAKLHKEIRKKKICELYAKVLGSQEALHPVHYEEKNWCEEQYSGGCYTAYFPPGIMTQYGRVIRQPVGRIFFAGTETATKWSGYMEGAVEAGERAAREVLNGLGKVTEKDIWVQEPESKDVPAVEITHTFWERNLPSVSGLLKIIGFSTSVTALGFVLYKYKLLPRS
Description: The Promega MAO-Glo assay kit (V1402) was used to assess monoamine oxidase A (MAO-A) and monoamine oxidase B (MAO-B) activity. MAO substrate was prepared at 80 μM with the specific MAO-A/B reaction buffer. Overall, 0.5 μl test compound was added to 25 μl MAO substrate at 100, 30, 10, 3, 1, 0.3, 0.1, 0.03, 0.01 and 0.003 μM (final concentration) in a 96-well white, flat bottom plate. Overall, 25 μl of 1:520 dilution of MAO-A enzyme (Promega, V1452) or 25 μl of 1:52 dilution of MAO-B enzyme (Sigma, M7441) in specific MAO-A/B reaction buffer was added to each well (enzyme prepared at 2×final concentration) and plates were incubated for 1 h at room temperature. Finally, 50 μl per well luciferin detection reagent was added and plates were incubated for 20 min at room temperature, protected from light. Luminescence was measured with an integration time of 500 ms per well using a SpectaMax M5 plate reader and resulting IC50 values were calculated using GraphPad Prism software.
In another setting, the DAO and MAO assays were performed in 384-well plates (Greiner) and test compound was added using a Labcyte Echo™ Acoustic Handler for the same final concentrations as in the 96-well setting. Luminescence was measured with BMG LABTECH PHERAstar FS plate reader.

LOXL2 = target: T2, LOXL2 (Homo sapiens, UniProt Q9Y4K0); test: LOX isoform activity assay (ROS Glo), LOXL2; type: biochemical
T2 construct: purchased R&D Systems/Bio-techne
T2 sequence (Q9Y4K0 26-774): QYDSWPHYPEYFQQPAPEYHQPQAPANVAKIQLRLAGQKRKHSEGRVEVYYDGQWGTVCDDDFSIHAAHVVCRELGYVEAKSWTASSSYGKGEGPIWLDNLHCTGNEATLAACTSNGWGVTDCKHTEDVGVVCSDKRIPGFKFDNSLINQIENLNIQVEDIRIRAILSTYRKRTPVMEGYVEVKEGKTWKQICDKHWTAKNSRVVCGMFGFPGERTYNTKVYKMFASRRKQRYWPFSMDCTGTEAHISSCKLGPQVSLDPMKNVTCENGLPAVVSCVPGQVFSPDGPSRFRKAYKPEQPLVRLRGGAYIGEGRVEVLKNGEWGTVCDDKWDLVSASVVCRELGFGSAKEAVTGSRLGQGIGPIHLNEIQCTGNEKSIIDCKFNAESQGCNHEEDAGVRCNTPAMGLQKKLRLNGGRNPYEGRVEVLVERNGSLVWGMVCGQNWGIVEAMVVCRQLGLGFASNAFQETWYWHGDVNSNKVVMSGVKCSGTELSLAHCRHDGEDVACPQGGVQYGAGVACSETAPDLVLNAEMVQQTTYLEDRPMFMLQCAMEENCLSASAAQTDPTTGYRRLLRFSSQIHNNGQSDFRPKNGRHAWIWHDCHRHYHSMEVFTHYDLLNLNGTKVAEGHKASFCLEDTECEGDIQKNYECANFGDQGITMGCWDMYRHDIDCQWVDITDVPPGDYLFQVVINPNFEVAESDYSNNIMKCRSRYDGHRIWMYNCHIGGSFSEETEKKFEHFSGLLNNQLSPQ
Method in brief: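 Human LOXL2 in 100 mM CHES pH 9 (1 M urea, 100 mM NaCl, 1 mM MgCl2, 0.5% BSA, 0.05% pluronic F-127) preincubated with compound (0.003–100 μM final) for 20 min, 1 h or 20 h. Cadaverine 19.56 mM and H2O2 25 μM added, 1 h at RT. Luminescence (ROS-Glo luciferin detection) fitted to IC50.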

[2] = 1 hr incubation with enzyme; read-out: LOXL2 IC50 b) 1 hr
[3] = 20 hr incubation with enzyme; read-out: LOXL2 IC50 c) 20 hr

SMILES	IC50 [1]	IC50 (LOXL2; [2])	IC50 (LOXL2; 20 min incubation with enzyme; read-out: LOXL2 IC50 a) 20 min)	IC50 (LOXL2; [3])
CCOc1ccc(N2C[C@H]3CN(C(=O)NCCS(=O)(=O)CCN)C[C@@H]2C(C)(C)C3)cc1 [Example 38, (1S,5S)—N-(2-((2-aminoethyl)sulfonyl)ethyl)-6-(4-ethoxyphenyl)-9,9-dimethyl-3,6-diazabicyclo[3.2.2]nonane-3-carboxamide]	–	0.58 µM	–	–
CCOc1ccc(N2C[C@@H]3C[C@H]2CN3C(=O)CS(=O)(=O)CCN)cc1 [Example 8, 2-((2-aminoethyl)-sulfonyl)-1-((1S,4S)-5-(4-ethoxyphenyl)-2,5-diazabicyclo-[2.2.1]heptan-2-yl)-ethan-1-one]	> 100 µM	–	–	0.15 µM
NCCS(=O)(=O)CC(=O)N1CCN(c2ncccn2)CC1 [Example 12, 2-((2-Aminoethyl)-sulfonyl)-1-(4-(pyrimidin-2-yl)-piperazin-1-yl)ethan-1-one]	> 100 µM	0.43 µM	–	–
CCOc1ccc(N2C[C@H]3CN(C(=O)CS(=O)(=O)CCN)C[C@@H]2C(C)(C)C3)cc1 [Example 7, 2-((2-aminoethyl)sulfonyl)-1-((1S,5S)-6-(4-ethoxyphenyl)-9,9-dimethyl-3,6-diazabicyclo[3.2.2]nonan-3-yl)ethan-1-one]	> 100 µM	–	–	0.27 µM
CCOc1ccc(N2C[C@H]3CN(CCS(=O)(=O)CCN)C[C@@H]2C(C)(C)C3)cc1 [Example 1, 2-((2-((1R,5S)-6-(4-ethoxyphenyl)-9,9-dimethyl-3,6-diazabicyclo[3.2.2]nonan-3-yl)ethyl)sulfonyl)ethan-1-amine]	> 100 µM	–	–	1.6 µM
CCOc1ccc(N2C[C@H]3CN(c4ccc(S(=O)(=O)CCN)cc4)C[C@@H]2C(C)(C)C3)cc1 [Example 33, 2-((4-((1R,5S)-6-(4-ethoxyphenyl)-9,9-dimethyl-3,6-diazabicyclo [3.2.2]nonan-3-yl)phenyl)sulfonyl)ethan-1-amine]	> 100 µM	–	–	16 µM

More lines, main results first:

IC50 [1]	IC50 (LOXL2; [2])	IC50 (LOXL2; 20 min incubation with enzyme; read-out: LOXL2 IC50 a) 20 min)	SMILES	IC50 (LOXL2; [3])
> 100 µM	0.4 µM	–	NCCS(=O)(=O)CC(=O)N1CCN(c2ccccc2)CC1 [Example 13, 2-((2-Aminoethyl)-sulfonyl)-1-(4-phenylpiperazin-1-yl)ethan-1-one]	–
> 100 µM	0.17 µM	–	Cc1ccc(S(=O)(=O)N2C[C@H]3CN(C(=O)CS(=O)(=O)CCN)C[C@H]3C2)cc1 [Example 11, 2-((2-aminoethyl)-sulfonyl)-1-(cis-5-tosylhexahydro-pyrrolo[3,4-c]pyrrol-2(1H)-yl)ethan-1-one]	–
> 100 µM	–	–	CCOc1ccc(N2C[C@@H]3C[C@H]2CN3CCS(=O)(=O)CCN)cc1 [Example 2, 2-((2-((1S,4S)-5-(4-ethoxyphenyl)-2,5-diazabicyclo[2.2.1]heptan-2-yl)ethyl)sulfonyl)-ethan-1-amine]	0.4 µM
> 100 µM	3.1 µM	–	CCOC(=O)CCC(C(=O)N1C[C@@H]2C[C@H]1CN2c1ccc(OCC)cc1)S(=O)(=O)CCN (stereo partly drawn) [Example 41, ethyl 4-((2-aminoethyl)sulfonyl)-5-((1S,4S)-5-(4-ethoxyphenyl)-2,5-diazabicyclo[2.2.1]heptan-2-yl)-5-oxopentanoate]	–
> 100 µM	11 µM	–	CCOc1ccc(N2C[C@@H]3C[C@H]2CN3C(=O)C2(S(=O)(=O)CCN)CC2)cc1 [Example 42, (1-((2-Aminoethyl)sulfonyl)cyclopropyl)((1S,4S)-5-(4-ethoxyphenyl)-2,5-diazabicyclo[2.2.1]heptan-2-yl)methanone]	–
> 100 µM	–	7.3 µM	CCOc1ccc(N2CC3CN(CCS(=O)(=O)CCN)CC3C2)cc1 (centres unmarked) [Example 4, 2-((2-(5-(4-ethoxyphenyl)hexahydropyrolo [3,4-c]pyrrol-2(1H)-yl)ethyl)sulfonyl)ethan-1-amine]	–
